# Results from publication PMC8086144, “A novel peptide antagonist of the human growth hormone receptor” (The Journal of Biological Chemistry, 2021).
# Key:
# Type in all cases: cell-based
# hGHR [1] = target: T1, hGHR (Homo sapiens, UniProt P10912); experiment: hGH-mediated pSTAT5 in SK-MEL-28 cells, ELISA; details: SK-MEL-28, 20 min, ELISA (pSTAT5A Y694/pSTAT5B Y699), SK-MEL-28 cells co-treated with hGH and 200 nM peptide, Equation 2, triplicate
# T1 construct: previously reported to express high levels of endogenous hGHR; host or cells: SK-MEL-28, MALME-3M, IM9
# T1 sequence (P10912 19-638): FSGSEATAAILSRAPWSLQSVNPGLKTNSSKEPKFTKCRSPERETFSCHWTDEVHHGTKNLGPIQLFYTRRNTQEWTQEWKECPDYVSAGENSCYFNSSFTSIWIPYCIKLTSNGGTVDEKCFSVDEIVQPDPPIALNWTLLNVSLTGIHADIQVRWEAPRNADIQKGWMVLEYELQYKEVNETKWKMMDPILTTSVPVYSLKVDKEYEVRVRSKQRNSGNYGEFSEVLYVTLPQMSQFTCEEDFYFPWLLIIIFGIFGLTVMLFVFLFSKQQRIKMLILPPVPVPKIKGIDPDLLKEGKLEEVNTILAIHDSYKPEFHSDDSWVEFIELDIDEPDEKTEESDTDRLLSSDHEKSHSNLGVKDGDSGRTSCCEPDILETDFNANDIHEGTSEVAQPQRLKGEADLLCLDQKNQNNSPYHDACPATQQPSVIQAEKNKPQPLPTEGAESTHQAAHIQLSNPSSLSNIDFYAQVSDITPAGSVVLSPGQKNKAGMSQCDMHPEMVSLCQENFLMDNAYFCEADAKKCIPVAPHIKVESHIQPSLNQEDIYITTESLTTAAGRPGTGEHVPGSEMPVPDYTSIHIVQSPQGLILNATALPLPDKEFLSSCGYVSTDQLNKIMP
# Description: SK-MEL-28, MALME-3M, and T84 cells were grown and maintained in Eagle's Minimal Essential Medium. IM9 and L cells were grown in RPMI-1640 media and Dulbecco's modified Eagle's medium, respectively. All growth media was supplemented with 10% fetal bovine serum and 1× antibiotic-antimycotic […] solution. Cells were grown at 37 °C under a 5% CO2 atmosphere in a humidified incubator, and growth media was replaced every 48 h during incubation. No hGH was present in or added to the growth media unless specifically indicated. Between 12 to 16 h after seeding, adherent cells (SK-MEL-28, MALME-3M, T84, L cells) were switched to serum-free growth media (no GH) and starved for 4 h before the addition of hGH, bGH (L cells), hPRL (MALME-3M and T84 cells), or buffer at the concentrations noted. Cells were then allowed to incubate for an additional 20 min before being harvested. For suspended cell treatments, IM9 cells were pelleted by centrifugation at 140g for 5 min at room temperature. The supernatant was then removed by aspiration, and the cells were resuspended in serum-free media. The cells were then starved for 4 h at 37 °C under a 5% CO2 atmosphere in a humidified incubator and subsequently treated with hGH, S1H, or both at the indicated concentrations for 20 min before harvesting by centrifugation.
# Following treatment, the cells were harvested at the indicated time points, and the total protein was extracted. To affect protein extraction, the treatment media was removed by aspiration, and the cells were washed twice with ice-cold PBS. Following washing, total protein was extracted from the cells using RIPA buffer (100 μl/million cells) supplemented with 1.5× Halt protease and phosphatase inhibitor cocktail. Briefly, chilled RIPA buffer was added to the cells, and the lysis reaction was allowed to incubate for 5 min at 4 °C. Adherent cells were harvested for lysis using a sterile cell scraper. The resultant cell suspensions were sonicated on ice for 60 s with ON (2-s)/OFF (1-s) pulses at 2% power. The cell lysate was then cleared by centrifugation at 8000g for 10 min at 4 °C. Following centrifugation, the supernatant was collected and stored at −80 °C until further use. Sample protein concentration was quantified using a Bradford assay with bovine serum albumin as the protein standard. Absorbance at 595 nm was measured using a Spectramax 250 multimode plate reader (Molecular Devices) and processed using SoftmaxPro v4.7.1 software.
# Intracellular pSTAT5A (Y694) and pSTAT5B (Y699) levels were quantified from clarified protein samples using an InstantOne ELISA kit (Thermo Fisher) according to the manufacturer’s instructions. Briefly, 50 μl of protein sample (1 mg/ml) were added to wells containing 50 μl antibody cocktail in a 96-well plate and incubated at room temperature for 2 h with shaking (300 rpm). Following incubation, the wells were washed, and the bound antibodies were detected by adding detection regent and incubating the plate for 1 h at room temperature with shaking (300 rpm). Following incubation, stop reagent was added, and the absorbance was read at 450 nm using a UV-VIS spectrophotometer (Molecular Devices, model M2). All experiments were performed in triplicate. Percent pSTAT5 inhibition was calculated from background-subtracted pSTAT5 levels using Equation 2:(2) %inhibition=100×(pSTAT5hGH−pSTAT5PI)/pSTAT5hGH where pSTAT5hGH is the fold-induction of pSTAT5 upon treatment with hGH alone and pSTAT5PI is the fold-induction of pSTAT5 upon co-treatment with hGH and peptide inhibitor.
# hGHR [2] = target: T1, hGHR; experiment: hGH-mediated pSTAT5 in MALME-3M cells, Western blot; details: 20 min
# Description: (§1) SK-MEL-28, MALME-3M, and T84 cells were grown and maintained in Eagle's Minimal Essential Medium. IM9 and L cells were grown in RPMI-1640 media and Dulbecco's modified Eagle's medium, respectively. All growth media was supplemented with 10% fetal bovine serum and 1× antibiotic-antimycotic […] solution. Cells were grown at 37 °C under a 5% CO2 atmosphere in a humidified incubator, and growth media was replaced every 48 h during incubation. No hGH was present in or added to the growth media unless specifically indicated. […]
# (§2) Following treatment, the cells were harvested at the indicated time points, and the total protein was extracted. […] Sample protein concentration was quantified using a Bradford assay with bovine serum albumin as the protein standard. Absorbance at 595 nm was measured using a Spectramax 250 multimode plate reader (Molecular Devices) and processed using SoftmaxPro v4.7.1 software.
# (§3) Cytosolic fractions from treated cells were thawed on ice, and 80 μg protein was loaded onto polyacrylamide gels for separation by SDS-PAGE. […] Chemiluminescence signals were detected using a GelDoc (BioRad) fluorescence imager. […] Percent inhibition was then measured by subtracting the pSTAT5 band intensity in each lane from the pSTAT5 band intensity of hGH-treated samples. […]
# hGHR [3] = target: T1, hGHR; experiment: hGH-mediated pSTAT5 in IM9 cells, Western blot; details: 200 nM S1H with 2.5 nM hGH, 20 min, Western blot densitometry, n = 3
# Description: as §1, §2, §3
# hGHR [4] = target: T1, hGHR; experiment: hGH-mediated pSTAT5 in SK-MEL-28 cells, Western blot; details: 20 min, Western blot densitometry, n = 3
# Description: as §1, §2, §3
compound,measurement,setting,value
CC[C@H](C)[C@H](NC(=O)[C@H](Cc1ccc(O)cc1)NC(C)=O)C(=O)N1CCC[C@H]1C(=O)N[C@@H](CCCCN)C(=O)N[C@@H](CCC(=O)O)C(=O)N[C@@H](CCC(N)=O)C(=O)N[C@@H](CCCCN)C(=O)N[C@@H](Cc1ccc(O)cc1)C(=O)N[C@@H](CO)C(=O)N[C@@H](Cc1ccccc1)C(=O)N[C@@H](CC(C)C)C(=O)N[C@@H](CCC(N)=O)C(=O)N[C@@H](CC(N)=O)C(=O)N1CCC[C@H]1C(=O)N[C@@H](CCC(N)=O)C(=O)N[C@H](C(N)=O)[C@@H](C)O [S1H],inhibition at 0.2 µM,hGHR [1],98.3%
same,inhibition at 0.05 µM,"hGHR [2]; 50 nM inhibitor with 2.5 nM hGH, Western blot, compared with hGH alone, read-out: inhibition of hGH-induced pSTAT5",40%
same,suppression of hGH-mediated pSTAT5,"hGHR [2]; 200 nM S1H with 2.5 nM hGH, Western blot densitometry, n = 3",56%
same,suppression of hGH-mediated pSTAT5,hGHR [3],67%
same,suppression of hGH-mediated pSTAT5,hGHR [4]; 100 nM S1H with 2.5 nM hGH,46%
same,suppression of hGH-mediated pSTAT5,hGHR [4]; 200 nM S1H with 2.5 nM hGH,67%
